Measured values taken from article PMC4878759 (PLoS ONE, 2016).
Like-named read-outs stand apart in the source and are kept apart here.

Key:
ENaC = molecular target: T1, ENaC (Homo sapiens, UniProt P37088+P51168+P51170); assay: Short circuit current in T84 cells expressing ENaC; assay type: cell-based; details: 100 μM
T1 construct: endogenous in cells; host or cells: T84 cells, ENaC induced with 2 mM sodium butyrate for 2 days
T1 sequence (P37088 1-669): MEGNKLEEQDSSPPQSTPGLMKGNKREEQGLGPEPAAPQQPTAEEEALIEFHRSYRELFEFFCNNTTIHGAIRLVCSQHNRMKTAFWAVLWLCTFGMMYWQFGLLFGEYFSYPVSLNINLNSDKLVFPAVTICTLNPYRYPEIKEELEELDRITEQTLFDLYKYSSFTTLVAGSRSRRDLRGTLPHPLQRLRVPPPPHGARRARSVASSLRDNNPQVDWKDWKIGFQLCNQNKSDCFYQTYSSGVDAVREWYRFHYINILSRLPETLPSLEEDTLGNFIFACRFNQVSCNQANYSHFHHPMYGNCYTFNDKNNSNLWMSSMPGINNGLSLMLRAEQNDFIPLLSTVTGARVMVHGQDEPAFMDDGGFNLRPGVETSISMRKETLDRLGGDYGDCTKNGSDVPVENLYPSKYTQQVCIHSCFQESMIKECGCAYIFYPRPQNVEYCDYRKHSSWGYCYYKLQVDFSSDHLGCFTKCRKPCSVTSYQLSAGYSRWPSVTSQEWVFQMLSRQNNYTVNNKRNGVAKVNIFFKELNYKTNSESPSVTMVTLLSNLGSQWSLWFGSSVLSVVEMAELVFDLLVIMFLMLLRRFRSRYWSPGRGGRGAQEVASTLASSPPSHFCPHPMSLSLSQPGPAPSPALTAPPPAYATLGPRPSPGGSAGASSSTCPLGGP
T1 sequence (P51168 1-640): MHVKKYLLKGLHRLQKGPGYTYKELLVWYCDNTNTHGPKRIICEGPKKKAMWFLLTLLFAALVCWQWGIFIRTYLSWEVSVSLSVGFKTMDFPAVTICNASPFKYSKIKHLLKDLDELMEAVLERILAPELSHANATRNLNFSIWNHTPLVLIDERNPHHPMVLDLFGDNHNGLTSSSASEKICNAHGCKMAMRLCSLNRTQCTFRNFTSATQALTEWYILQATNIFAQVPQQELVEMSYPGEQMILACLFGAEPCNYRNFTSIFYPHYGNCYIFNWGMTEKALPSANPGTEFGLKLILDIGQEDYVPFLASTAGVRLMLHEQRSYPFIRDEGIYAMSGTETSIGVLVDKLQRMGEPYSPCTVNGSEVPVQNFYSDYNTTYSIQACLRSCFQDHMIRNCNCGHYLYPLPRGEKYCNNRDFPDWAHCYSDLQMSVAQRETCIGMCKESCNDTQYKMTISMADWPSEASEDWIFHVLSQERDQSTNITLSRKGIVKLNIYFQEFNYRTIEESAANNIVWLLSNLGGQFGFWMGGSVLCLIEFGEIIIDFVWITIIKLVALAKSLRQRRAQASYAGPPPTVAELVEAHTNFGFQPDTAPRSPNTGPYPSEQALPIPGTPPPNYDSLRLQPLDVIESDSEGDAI
T1 sequence (P51170 1-649): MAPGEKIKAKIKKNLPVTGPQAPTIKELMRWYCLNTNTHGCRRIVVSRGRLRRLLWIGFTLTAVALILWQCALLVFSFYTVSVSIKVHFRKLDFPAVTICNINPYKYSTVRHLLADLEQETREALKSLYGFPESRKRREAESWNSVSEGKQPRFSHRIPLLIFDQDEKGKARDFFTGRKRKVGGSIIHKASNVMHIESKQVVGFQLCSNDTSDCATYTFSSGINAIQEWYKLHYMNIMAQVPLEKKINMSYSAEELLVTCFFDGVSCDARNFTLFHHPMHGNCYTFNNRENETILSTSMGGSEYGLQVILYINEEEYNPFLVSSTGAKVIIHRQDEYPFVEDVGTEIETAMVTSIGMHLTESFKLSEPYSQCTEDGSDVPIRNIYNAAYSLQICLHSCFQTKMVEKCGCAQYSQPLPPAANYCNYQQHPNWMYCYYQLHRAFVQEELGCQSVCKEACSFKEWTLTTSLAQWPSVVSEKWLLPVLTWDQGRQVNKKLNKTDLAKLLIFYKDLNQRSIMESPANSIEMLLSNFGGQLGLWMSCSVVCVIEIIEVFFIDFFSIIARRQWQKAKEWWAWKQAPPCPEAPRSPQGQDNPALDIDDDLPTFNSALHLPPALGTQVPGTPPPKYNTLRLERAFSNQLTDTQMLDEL
Experimental: Snapwell inserts containing ANO1, ANO2 or CFTR expressing FRT cells, ENaC expressing T-84 cells or the human primary airway epithelial cells were mounted in Ussing chambers (Physiologic Instruments, San Diego, CA). To induce transcriptional ENaC induction, the polarized T84 cells were incubated with 2 mM sodium butyrate for 2 days. To increase the functional expression of ANO1, the human airway epithelial cells were treated with IL-4 (10 ng/mL) for 2 days. For T-84 and the human primary airway epithelial cells, the apical and basolateral bath were filled with HCO3^—buffered solution containing (in mM): 120 NaCl, 5 KCl, 1 MgCl2, 1 CaCl2, 10 D-glucose, 2.5 HEPES, and 25 NaHCO3 (pH 7.4). For FRT cells, the basolateral bath was filled with the HCO3^—buffered solution and the apical bath was filled with a half-Cl^- solution. In the half-Cl^- solution 65 mM NaCl in the HCO3^—buffered solution was replaced by Na-gluconate. […] ATP was applied to the apical bath solution to induce intracellular calcium increase. […] Apical membrane currents were measured with an EVC4000 Multi-Channel V/I Clamp (World Precision Instruments, Sarasota, FL) and PowerLab 4/35 (AD Instruments, Castle Hill, Australia). Data were analyzed using Labchart Pro 7 (AD Instruments). The sampling rate was 4 Hz.
ANO1 was activated by either 10 μM Eact, an ANO1 activator, or 100 μM ATP.

VRAC [1] = assay: VRAC activity by YFP quenching in LN215 cells; assay type: cell-based, human; details: 10 μM
Experimental: LN215 cells, a human glioma cell line, were stably transfected with YFP-F46L/H148Q/I152L, a halide sensor YFP. After the cells were incubated on 96well black plates (Corning Inc., Corning, NY) for 48 hours, each well of the 96-well plate was washed 3 times in PBS (200 μL/wash), and the wells were filled with 50 μl/well isotonic solution (in mM): 140 NaCl, 5 KCl, 20 HEPES (310 mOsm/kg; pH 7.4 with NaOH). In each well, VRAC expressed on the cells were stimulated with addition of 50 μl of hypotonic solutions (in mM): 5 KCl, 20 HEPES, 90 mannitol (120 mOsm/kg). Test compounds (1 μL) were added to each well in a dose dependent manner. After 5 min, 96-well plates were transferred to a plate reader for fluorescence assay. Each well was assayed individually for VRAC-mediated I^- influx by recording fluorescence continuously (400 ms per point) for 7.6 s. YFP fluorescence was recorded 0.4 s for baseline, then 100 μL of 140 mM I^- solution was added at 0.4 s to see the change in fluorescence. Initial iodide influx rate was determined from the initial slope of fluorescence decrease, by nonlinear regression, following infusion of iodide.

VRAC [2] = assay: Whole-cell patch clamp of hypotonicity-induced VRAC currents in LN215 cells; assay type: cell-based, human; details: 10 μM
Text: Pipettes were pulled from borosilicate glass and had resistances of 3–5 MΩ after fire polishing. […] The liquid junction potential (~2.4 mV) was not corrected. After establishing the whole-cell configuration, whole-cell capacitance and series resistance were compensated with the amplifier circuitry. […] VRAC was activated by exposing LN215 cells to a 25% hypotonic bath solution.

VRAC [3] = system: VRAC; parameters: method as in PMID 24965069, PMID 25163766, PMID 26438191; details: ref [26]–[28]; cited from earlier work
ANO1 = system: ANO1; parameters: method as in PMID 22526416; details: ref [38]; cited from earlier work
ANO2 = system: ANO2; parameters: method as in PMID 22526416; details: ref [38]; cited from earlier work

| Compound | inhibition of ANO1 (ANO1) | inhibition of ANO2 (ANO2) | also measured |
| --- | --- | --- | --- |
| N=C(N)NC(=O)c1nc(Cl)c(N)nc1N [amiloride] | – | – | effect on ENaC channel activity (ENaC): fully blocked |
| CCCCC1(C2CCCC2)Cc2cc(OCCCC(=O)O)c(Cl)c(Cl)c2C1=O (centres unmarked) [DCPIB] | – | – | block of VRAC activity (VRAC [1]): completely blocked; effect on hypotonicity-induced VRAC currents (VRAC [2]): almost completely blocked |
| O=C(O)c1cc([N+](=O)[O-])ccc1NCCCc1ccccc1 [NPPB, 5-nitro-2-(3-phenylpropylamino)-benzoic acid] | inhibited | inhibited | block of VRAC activity (VRAC [3]): potently blocked |
| O=C(O)c1cccnc1Nc1cccc(C(F)(F)F)c1 [niflumic acid] | inhibited | inhibited | – |
